Assay results published in US20160183564A1 (priority 2013, published 2016).
Several values for one entry are separate records, joined by “and”; a condition that tells them apart may be missing. Identical values can stand only once.

Legend:
Methanogenesis = assay type: cell-based
VFA production = assay type: cell-based

| Structure (SMILES) | Effect on Methanogenesis (% compared to control) (Methanogenesis) | VFA profile (as percentage of total VFA) But. (VFA production) | VFA profile (as percentage of total VFA) Prop. (VFA production) | VFA profile (as percentage of total VFA) ace. (VFA production) |
| --- | --- | --- | --- | --- |
| O=[N+]([O-])c1ccc(NCCO)cc1 [2-(4-Nitro-phenylamino)-ethanol] | −12% |  |  |  |
| O=[N+]([O-])OCCCO [3-nitrooxy propanol, 3-Nitrooxypropanol] | −9% and −8% | 6 percentage of total VFA | 34 percentage of total VFA | 59 percentage of total VFA |
| CCCNc1ccc([N+](=O)[O-])cc1 [(4-Nitro-phenyl)-propyl-amine] | −11% |  |  |  |
| Nc1ccc([N+](=O)[O-])cc1 [(4-nitro-phenyl)-amine] | −15% | 8 percentage of total VFA | 33 percentage of total VFA | 59 percentage of total VFA |
